The values below come from ChEMBL document CHEMBL1201862, “PubChem BioAssay data set” (2004).

Among the test systems are KM12; T47D; HCT-116; SF-268; SK-OV-3; MDA-MB-435; UACC-62; MDA-N; OVCAR-3; SW-620; SF-295; A549; DU-145; CCRF-CEM; HOP-92; BT-549; NCI-H23; OVCAR-4; OVCAR-8; SR.
Holding throughout (assay): NCI anticancer screen, dose series, 48 h

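Growth conditions: 96-well plates. Treatment: test compound, 48 hours, 5 concentrations. Analysis: linear interpolation between bracketing concentrations; unreached endpoints set to highest concentration. The concentration for 50% growth inhibition is given as GI50.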 Active and inactive are the calls of the source. No stated cut-off is given here; in the data, active = GI50 up to about 1.1 µM and inactive = higher.

For `CSCCC(NC(=O)C(Cc1c[nH]c2ccccc12)NC(=O)CCNC(=O)OC(C)(C)C)C(=O)NC(CC(=O)O)C(=O)NC(Cc1ccccc1)C(N)=O` (stereo unspecified), the GI50 in the assay on KM12, with T47D, in the assay with HCT-116, in the assay with SF-268, in the assay on SK-OV-3 and in the assay on MDA-MB-435 was > 50 µM (inactive) throughout. In addition, the GI50 with UACC-62, with MDA-N, in the assay on OVCAR-3, with SW-620, in the assay with SF-295 and in the assay on A549 was > 50 µM (inactive) throughout. In addition, the GI50 in the assay on DU-145, in the assay on CCRF-CEM, in the assay with HOP-92 and with BT-549 was > 50 µM (inactive) throughout.
As to `CC(=O)OCCOCn1c2c(c(=S)[nH]c1=O)CCC2`, the GI50 with NCI-H23, in the assay on KM12, with OVCAR-4, with HCT-116, in the assay with SF-268 and in the assay with OVCAR-8 was > 100 µM (inactive) in each case. For the same molecule, the GI50 in the assay with MDA-MB-435, in the assay on MDA-N, in the assay on OVCAR-3, in the assay on SW-620, in the assay on SF-295 and in the assay with A549 was > 100 µM (inactive) throughout. In addition, the GI50 with DU-145, with CCRF-CEM, with HOP-92, in the assay with BT-549 and in the assay with SR was > 100 µM (inactive) in each case.
`NC(=S)N/N=C1\CCCCc2ccccc21`: the GI50 is > 10 µM (inactive) in the assay on NCI-H23; > 10 µM (inactive) with KM12; 4.81 µM (inactive) in the assay with T47D; > 10 µM (inactive) with OVCAR-4; > 10 µM (inactive) in the assay with HCT-116; > 10 µM (inactive) in the assay with SF-268. For the same molecule, the GI50 with OVCAR-8, in the assay with MDA-MB-435, with MDA-N, with OVCAR-3, in the assay on SW-620 and in the assay with SF-295 was > 10 µM (inactive) throughout. The GI50 with A549, in the assay on DU-145, in the assay on CCRF-CEM, with BT-549 and with SR was > 10 µM (inactive) in each case.
In the case of `O=C1C(Sc2ccc3ccccc3c2)=C(Sc2ccc3ccccc3c2)C(=O)c2ccccc21`, the GI50 with NCI-H23 is 5.13 µM (inactive); in the assay on T47D it was 1.76 µM (inactive); in the assay on OVCAR-4, 3.47 µM (inactive); with HCT-116, 7.59 µM (inactive); in the assay on SF-268, 11 µM (inactive); with SK-OV-3, 22.7 µM (inactive). Besides, the GI50 is 10.5 µM (inactive) in the assay on OVCAR-8; 17.7 µM (inactive) in the assay on MDA-MB-435; 3.24 µM (inactive) with UACC-62; 4.8 µM (inactive) in the assay on SW-620; 4.72 µM (inactive) in the assay on A549; 22 µM (inactive) in the assay on DU-145. For the same molecule, the GI50 with HOP-92 is 6.64 µM (inactive); in the assay on BT-549 it was 12 µM (inactive).
As to `COc1cc(/C=C/C(=O)OC[C@H](Br)[C@H](OC(C)=O)c2ccc3c(c2)OCO3)cc(OC)c1OC`, the GI50 was > 100 µM (inactive) in the assay on NCI-H23; > 100 µM (inactive) with KM12; 52.5 µM (inactive) in the assay on T47D; > 100 µM (inactive) in the assay with OVCAR-4; > 100 µM (inactive) in the assay with HCT-116; > 100 µM (inactive) with SF-268. Also, the GI50 in the assay on SK-OV-3, in the assay on OVCAR-8, in the assay with MDA-MB-435, in the assay on UACC-62, in the assay with OVCAR-3 and in the assay on SW-620 was > 100 µM (inactive) in each case. For the same molecule, the GI50 in the assay on SF-295 is > 100 µM (inactive); in the assay on A549, 92.7 µM (inactive); with DU-145 it was > 100 µM (inactive); in the assay with CCRF-CEM, > 100 µM (inactive); in the assay on HOP-92, > 100 µM (inactive); with BT-549, > 100 µM (inactive). Moreover, the GI50 in the assay on SR was 48.8 µM (inactive).
For the molecule `COCCN(CCNC(=O)c1cccc2c(N)c3cccc(C)c3nc12)CCOC`, the GI50 in the assay with NCI-H23 was 0.78 µM (active); in the assay with KM12 it was 0.83 µM (active); with T47D, 4.65 µM (inactive); in the assay with OVCAR-4, 0.589 µM (active); with HCT-116, 0.9 µM (active); in the assay on SF-268, 0.35 µM (active). Besides, the GI50 is 5.16 µM (inactive) in the assay on SK-OV-3; 0.807 µM (active) in the assay with OVCAR-8; 1.83 µM (inactive) with MDA-MB-435; 2.94 µM (inactive) in the assay with UACC-62; 0.875 µM (active) with MDA-N; 2 µM (inactive) in the assay on OVCAR-3. Also, the GI50 is 0.491 µM (active) in the assay with SW-620; 2.77 µM (inactive) with SF-295; 0.692 µM (active) in the assay with A549; 1.28 µM (inactive) with DU-145; 1.14 µM (inactive) in the assay with CCRF-CEM; 6.5 µM (inactive) in the assay on HOP-92. For the same molecule, the GI50 in the assay with BT-549 was 5.7 µM (inactive).
For the molecule `CSc1ccc(/C=C2\CNC/C(=C\c3ccc(SC)cc3)C2=O)cc1`, the GI50 in the assay on T47D is > 371 µM (inactive); in the assay on HCT-116, 144 µM (inactive); in the assay with SF-268, 13.4 µM (inactive); in the assay on SK-OV-3 it was 96.8 µM (inactive); with OVCAR-8, 52.4 µM (inactive); with MDA-MB-435, > 371 µM (inactive). The GI50 with UACC-62 was > 87.5 µM (inactive); with MDA-N, > 100 µM (inactive); in the assay with OVCAR-3 it was 36.8 µM (inactive); with SW-620, > 371 µM (inactive); in the assay with SF-295, 29.4 µM (inactive); in the assay with A549, > 237 µM (inactive). Moreover, the GI50 with DU-145 is > 371 µM (inactive); in the assay on HOP-92, 65.5 µM (inactive); with BT-549 it was > 371 µM (inactive).
For the molecule `COc1cc(N(CCC#N)CCC#N)ccc1/C=N\NC(=O)c1ccc(C)cc1`, the GI50 in the assay with NCI-H23, in the assay on KM12, in the assay on T47D, in the assay on OVCAR-4, with HCT-116 and in the assay with SF-268 was > 100 µM (inactive) each time. For the same molecule, the GI50 in the assay with SK-OV-3 is > 100 µM (inactive); in the assay with OVCAR-8, > 100 µM (inactive); with MDA-MB-435, > 100 µM (inactive); in the assay on UACC-62, > 100 µM (inactive); with MDA-N, > 100 µM (inactive); with OVCAR-3, 75.2 µM (inactive). For the same molecule, the GI50 in the assay with SW-620, in the assay with SF-295, in the assay on A549, with DU-145, in the assay on CCRF-CEM and in the assay with HOP-92 was > 100 µM (inactive) each time. Also, the GI50 with BT-549 is > 100 µM (inactive).
Regarding `[N-]=[N+]=NC(c1cn(C2CC(O)C(CO)O2)c(=O)[nH]c1=O)C(Cl)I` (stereo unspecified), the GI50 with NCI-H23, in the assay with KM12, in the assay on T47D, in the assay with OVCAR-4, with HCT-116 and in the assay on SF-268 was > 100 µM (inactive) each time. For the same molecule, the GI50 in the assay with SK-OV-3, with OVCAR-8, in the assay with MDA-MB-435, in the assay with UACC-62, with MDA-N and in the assay on OVCAR-3 was > 100 µM (inactive) throughout. Also, the GI50 in the assay on SW-620, in the assay on SF-295, with A549, with DU-145 and in the assay on BT-549 was > 100 µM (inactive) in each case.
Take `Cc1ccn2c(=O)cc(CN3CCOCC3)nc2c1`: the GI50 in the assay with NCI-H23, with KM12, in the assay with OVCAR-4, in the assay on HCT-116, in the assay with SF-268 and in the assay on SK-OV-3 was > 100 µM (inactive) each time. For the same molecule, the GI50 in the assay on OVCAR-8 was > 100 µM (inactive); in the assay with MDA-MB-435 it was > 100 µM (inactive); in the assay on UACC-62, 58.1 µM (inactive); in the assay with MDA-N, > 100 µM (inactive); in the assay with OVCAR-3 it was > 100 µM (inactive); with SW-620, > 100 µM (inactive). Besides, the GI50 in the assay with SF-295, with A549, with DU-145, in the assay on CCRF-CEM, with HOP-92 and with BT-549 was > 100 µM (inactive) throughout. Moreover, in the assay with SR, the GI50 is > 100 µM (inactive).
In the case of `COc1cc2c(c(OC)c1O)-c1ccc(OC)c(=O)cc1[C@@H](NC(=O)C(F)(F)F)CC2`, the GI50 with NCI-H23 was 0.0809 µM (active); with KM12, 0.0482 µM (active); in the assay on T47D, > 100 µM (inactive); in the assay with OVCAR-4 it was > 26.1 µM (inactive); in the assay with HCT-116 it was 0.0474 µM (active); in the assay with SF-268 it was 0.173 µM (active). The GI50 in the assay with SK-OV-3 was 0.191 µM (active); with OVCAR-8, 0.243 µM (active); in the assay with MDA-MB-435, 0.0206 µM (active); in the assay with UACC-62 it was 0.0387 µM (active); in the assay with MDA-N it was 0.0262 µM (active); in the assay with OVCAR-3, 0.0307 µM (active). Also, the GI50 in the assay with SW-620 was 0.0376 µM (active); in the assay on SF-295, 0.392 µM (active); in the assay with A549, 0.472 µM (active); in the assay with DU-145, 0.361 µM (active); in the assay on CCRF-CEM it was 0.0519 µM (active); with HOP-92, 0.111 µM (active). In the assay on BT-549, the GI50 is 1.98 µM (inactive).
